Measured values taken from PubChem BioAssay (NCI).
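Results reflect a 48-hour exposure of cells in 96-well plates to compound at five concentrations. GI50 marks 50% less growth. At the TGI there is no net growth.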

Assays:
Assay in all cases: growth of human tumour cells (NCI), 48 h
UO-31 renal = system: UO-31 renal
A549 NSCLC = system: A549 NSCLC
HCT-116 colon = system: HCT-116 colon
MOLT-4 leukemia = system: MOLT-4 leukemia
IGROV1 ovarian = system: IGROV1 ovarian
OVCAR-8 ovarian = system: OVCAR-8 ovarian
SK-OV-3 ovarian = system: SK-OV-3 ovarian
MDA-MB-231 breast = system: MDA-MB-231 breast
LOX IMVI melanoma = system: LOX IMVI melanoma
A498 renal = system: A498 renal

SMILES | TGI (UO-31 renal) [µM] | TGI (A549 NSCLC) [µM] | TGI (HCT-116 colon) [µM] | TGI (MOLT-4 leukemia) [µM] | TGI (IGROV1 ovarian) [µM] | TGI (OVCAR-8 ovarian) [µM] | TGI (SK-OV-3 ovarian) [µM] | TGI (MDA-MB-231 breast) [µM] | TGI (LOX IMVI melanoma) [µM] | TGI (A498 renal) [µM] | GI50 (UO-31 renal) [µM] | GI50 (A549 NSCLC) [µM] | GI50 (A498 renal) [µM] | GI50 (MOLT-4 leukemia) [µM] | GI50 (IGROV1 ovarian) [µM] | GI50 (SK-OV-3 ovarian) [µM] | GI50 (MDA-MB-231 breast) [µM]
COc1cc(/C=N/NC2=NCCN2)ccc1O | > 100 | > 100 | > 100 | > 100 | > 100 | > 100 | > 100 | > 100 | > 100 | – | – | – | – | – | – | – | –
Cc1cc2ccc(N)nc2[nH]c1=O | > 100 | > 100 | > 100 | – | > 100 | > 100 | > 100 | > 100 | – | – | – | – | – | – | – | – | –
CCCCCCCCCCCCO[P+](=O)OCCCCCCCCCCCC | > 100 | > 100 | > 100 | > 100 | > 100 | > 100 | > 100 | > 100 | – | > 100 | – | – | – | – | – | – | –
O=c1[nH]c2ccc([N+](=O)[O-])cc2nc1/C=C(\O)c1ccccc1 | > 100 | > 100 | > 100 | > 100 | > 100 | 49.4 | 33.7 | 15.3 | – | 47.4 | – | – | – | – | – | – | –
S=c1nc[nH]c2c1ncn2C1CCCO1 (stereo not drawn) | > 100 | > 100 | > 100 | > 100 | > 100 | > 100 | > 100 | – | > 100 | > 100 | – | – | – | – | – | – | –
Cc1c(O)c(=O)ccn1CCc1ccc(O)cc1 | – | > 100 | > 100 | > 100 | – | > 100 | > 100 | 50.3 | 53.9 | – | – | – | – | – | – | – | –
CN(C)CCCNC(=O)c1cn2c(ccc3sc4ccccc4c(=O)c32)n1 | 24.3 | 28.3 | 2.98 | – | 27.4 | 10.1 | 30.7 | 2.93 | – | 30.7 | – | – | – | – | – | – | –
CCOC(=O)C(C(=O)COC(C)(C)C)[C@@H]1C=C[C@H](OC(C)=O)C1 (stereo partly drawn) | > 100 | > 100 | > 100 | > 100 | – | – | > 100 | > 100 | – | > 100 | – | – | – | – | – | – | –
O=C(N/N=C\c1ccc([N+](=O)[O-])s1)c1ccncc1 | > 38.5 | > 66.3 | 19.5 | > 63.2 | 26 | 49.2 | > 100 | > 89.1 | – | 53 | – | – | – | – | – | – | –
NS(=O)(=O)c1ccc(N=Nc2ccc(O)c(C(=O)O)c2)cc1 | > 100 | > 100 | > 100 | > 100 | > 100 | > 100 | > 100 | > 100 | – | > 100 | – | – | – | – | – | – | –
O=S(=O)(O)c1cc(S(=O)(=O)O)c2c(N=Nc3ccc(N=Nc4ccccc4)cc3)c(O)ccc2c1 | > 100 | > 100 | > 100 | > 100 | > 100 | > 100 | > 100 | > 100 | – | > 100 | – | – | – | – | – | – | –
CCn1c2ccccc2c2cc(Nc3cc(C)[nH]c(=O)n3)ccc21 | > 100 | > 100 | > 100 | – | – | > 100 | > 100 | > 100 | – | > 100 | – | – | – | – | – | – | –
O=C(O)c1ccc(N/C(=C(/C(Cl)=C(Cl)Cl)[N+](=O)[O-])n2nnc3ccccc32)cc1 | > 100 | > 100 | > 100 | > 100 | – | > 100 | > 100 | > 100 | – | > 100 | – | – | – | – | – | – | –
CC(C)(C)C1=C(Br)C(OC(=O)C(F)(F)F)(C(C)(C)C)OP1(=O)c1ccccc1 (stereo not drawn) | > 100 | > 100 | > 100 | – | > 100 | > 100 | > 100 | – | > 100 | > 100 | – | – | – | – | – | – | –
CN1CCC2(CC1)C(=NC1CCCCC1)NC(=O)N2c1ccccc1 | > 100 | > 100 | > 100 | > 100 | > 100 | > 100 | > 100 | > 100 | – | > 100 | – | – | – | – | – | – | –
O=S(=O)(O)c1ccc2c(N=Nc3ccc(Sc4ccc(N=Nc5c(O)ccc6cc(S(=O)(=O)O)ccc56)cc4)cc3)c(O)ccc2c1 | > 100 | > 100 | > 100 | > 100 | > 100 | > 100 | > 100 | > 100 | – | – | – | – | – | – | – | – | –
C=C(C)[C@@H]1CC[C@]2(CO)CC[C@]3(C)[C@H](CC[C@@H]4[C@@]5(C)CC[C@H](NCO)C(C)(C)[C@@H]5CC[C@]43C)[C@@H]12 | 1.35 | 1.73 | – | 2.56 | 1.68 | – | 1.61 | 1.75 | – | 1.69 | 0.703 | 0.885 | 0.802 | 1 | 0.899 | 0.87 | 0.995
COCCN1C(=O)C2c3[nH]c4ccccc4c3C3CCC(C(C)(C)C)CC3C2C1=O (stereo not drawn) | 27.2 | 39.5 | 29.9 | > 10 | 43.4 | 46 | 42.7 | 36.9 | – | – | – | – | – | – | – | – | –
C(=C/c1nc2ccccc2o1)/c1ccc2c(c1)OCO2 | 49.5 | > 81.4 | 33.3 | > 100 | > 83 | > 100 | 53.1 | – | > 47.8 | 56.8 | – | – | – | – | – | – | –
